Reference: US20250034170A1, “SMALL MOLECULE MODULATORS OF GLUCOCEREBROSIDASE ACTIVITY AND USES THEREOF” (Vanqua Bio, Inc., priority 2021, published 2025)

These compounds were tested against T1, GCase (Homo sapiens, UniProt P04062) (assay: activation of GCase in a live cell PFB assay in HELA cells). Conditions: activation of GCase, EC50 ranges.
T1 construct: endogenous in cells; host or cells: HeLa cells
T1 sequence (P04062 40-536): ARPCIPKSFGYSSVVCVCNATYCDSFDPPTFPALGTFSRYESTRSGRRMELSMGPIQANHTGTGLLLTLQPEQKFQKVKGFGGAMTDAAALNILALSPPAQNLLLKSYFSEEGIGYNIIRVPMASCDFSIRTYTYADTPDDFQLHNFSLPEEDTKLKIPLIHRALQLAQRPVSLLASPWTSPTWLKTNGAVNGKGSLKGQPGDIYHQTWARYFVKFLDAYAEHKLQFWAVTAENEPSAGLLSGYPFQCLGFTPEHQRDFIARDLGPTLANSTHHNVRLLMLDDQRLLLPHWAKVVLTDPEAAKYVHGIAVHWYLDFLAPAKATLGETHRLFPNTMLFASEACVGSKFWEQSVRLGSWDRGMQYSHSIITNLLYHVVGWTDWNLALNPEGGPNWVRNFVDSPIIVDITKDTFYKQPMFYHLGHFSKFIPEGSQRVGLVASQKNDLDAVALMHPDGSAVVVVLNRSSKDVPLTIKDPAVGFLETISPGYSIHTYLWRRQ
Format: cell-based
Experimental: Exemplary compounds were evaluated for activation of GCase in a live cell PFB assay in HELA cells (essentially as described in Ysselstein et al., “LRRK2 kinase activity regulates lysosomal glucocerebrosidase in neurons derived from Parkinson's disease patients” Nature Communications (2019) 10:5570). […] EC50 ranges: A: <10 μM; B: >10-50 μM; C: >50-100 μM; D: >100 μM.

EC50	SMILES
10 to 50 µM	FC(F)Cn1ncc2ncc(N3CCC4(CN(c5ccc(OC(F)F)nc5)C4)C3)nc21 [Cmpd 450]
10 to 50 µM	Fc1cnc(N2CC3(CCN(c4cnc5cnn(CC(F)F)c5n4)C3)C2)cc1C(F)(F)F [Cmpd 453]
10 to 50 µM	Cc1cc(N2CC3(CCN(c4cnc5cnn(C6COC6)c5n4)CC3)CC2=O)nc(C(F)(F)F)n1 [Cmpd 456]
10 to 50 µM	Cc1nc(N2CC3(CCN(c4cnc5cnn(C6COC6)c5n4)CC3)CC2=O)cc(C(F)(F)F)n1 [Cmpd 457]
< 10 µM	Cc1nn(C2COC2)c2nc(N3CCC4(CN(c5cnc(C(F)(F)F)nc5)C4)C3)ncc12 [Cmpd 460]
> 100 µM	Cc1ncc(N2CC3(CCN(c4cnc5cnn(CC(F)F)c5n4)C3)C2)cn1 [Cmpd 461]
10 to 50 µM	CCc1ncc(N2CC3(CCN(c4cnc5cnn(CC(F)F)c5n4)C3)C2)cn1 [Cmpd 462]
> 100 µM	Cc1cc(N2CC3(CCN(c4cncc(-c5nncs5)n4)C3)C2)nc(C(F)(F)F)n1 [Cmpd 465]
< 10 µM	Cc1cc(N2CC3(CCN(c4ncc5c(C)nn(CC(F)F)c5n4)C3)C2)nc(C(F)(F)F)n1 [Cmpd 468]
> 100 µM	FC(F)Cn1ncc2ncc(N3CCC4(CCN(c5ccnc(C(F)(F)F)c5)C4)C3)nc21 (centres unmarked) [Cmpd 472]
> 100 µM	Cc1nn(C2COC2)c2nc(N3CCC4(CCN(c5ccnc(C(F)(F)F)c5)C4)C3)ncc12 (centres unmarked) [Cmpd 475]
50 to 100 µM	Cc1nn(C2COC2)c2nc(N3CCC4(CCN(c5ccnc(C(F)(F)F)c5)C4)C3)cnc12 (centres unmarked) [Cmpd 476]
10 to 50 µM	Cc1nn(C2COC2)c2nc(N3CCC4(CC3)CN(c3cc(C(F)(F)F)ccn3)C4)cnc12 [Cmpd 480]
10 to 50 µM	FC(F)Cn1ncc2ncc(N3CCC4(CCN(c5cnc(C(F)(F)F)nc5)C4)C3)nc21 (centres unmarked) [Cmpd 481]
10 to 50 µM	FC(F)Cn1ncc2ncc(N3CCC4(CCN(c5ccc(C(F)(F)F)nc5)C4)C3)nc21 (centres unmarked) [Cmpd 482]
10 to 50 µM	FC(F)Cn1ncc2ncc(N3CCC4(CCN(c5ccc(C(F)(F)F)cn5)C4)C3)nc21 (centres unmarked) [Cmpd 483]
10 to 50 µM	FC(F)(F)c1cc(N2CCC3(CCN(c4cnc5cnn(C6COC6)c5n4)C3)C2)ccn1 (centres unmarked) [Cmpd 487]
> 100 µM	FC(F)Cn1ncc2cnc(N3CCC4(CCN(c5ccnc(C(F)(F)F)c5)C4)C3)nc21 (centres unmarked) [Cmpd 488]
< 10 µM	FC(F)(F)c1ccnc(N2CC3(CCN(c4cnc5cnn(C6COC6)c5n4)CC3)C2)c1 [Cmpd 493]
50 to 100 µM	O=C1CC2(CCN(c3cnc4cnn(CC(F)F)c4n3)C2)CN1c1ccc(C(F)(F)F)cn1 (centres unmarked) [Cmpd 497]
10 to 50 µM	O=C1CC2(CCN(c3cnc4cnn(CC(F)F)c4n3)C2)CN1c1ccc(C(F)(F)F)nc1 (centres unmarked) [Cmpd 498]
> 100 µM	O=C1CC2(CCN(c3ccnc(C(F)(F)F)c3)C2)CN1c1cnc2cnn(CC(F)F)c2n1 (centres unmarked) [Cmpd 506]
< 10 µM	Cc1nc(N2CCC3(CCN(c4cnc5cnn(CC(F)F)c5n4)CC3)C2)cc(C(F)(F)F)n1 [Cmpd 511]
< 10 µM	Cc1nn(CC(F)F)c2nc(N3CCC4(CCN(c5ccnc(C(F)(F)F)c5)C4=O)C3)cnc12 (centres unmarked) [Cmpd 514]
< 10 µM	Cc1nc(N2CCC3(CCN(c4cnc5cnn(CC(F)F)c5n4)C3)C2=O)cc(C(F)(F)F)n1 (centres unmarked) [Cmpd 516]
> 100 µM	O=C1N(c2cnc3cnn(CC(F)F)c3n2)CCC12CCN(c1ccnc(C(F)(F)F)c1)C2 (centres unmarked) [Cmpd 518]

Continued, compound first:

SMILES	EC50
FC(F)Cn1ncc2ncc(N3CCC4(CN(c5ccc(OC(F)(F)F)nc5)C4)C3)nc21 [Cmpd 451]	10 to 50 µM
FC(F)Cn1ncc2ncc(N3CCC4(CN(c5ccnc(OC(F)F)c5)C4)C3)nc21 [Cmpd 452]	< 10 µM
Cc1cc(N2CC3(CCN(c4cnc5cnn(C6COC6)c5n4)C3)C2)nc(C(F)(F)F)n1 [Cmpd 454]	10 to 50 µM
Cc1nc(N2CC3(CCN(c4cnc5c(C)nn(C6COC6)c5n4)C3)C2)cc(C(F)(F)F)n1 [Cmpd 455]	10 to 50 µM
Cc1cc(N2CC3(CCN(c4cnc5c(C)nn(C6COC6)c5n4)CC3)CC2=O)nc(C(F)(F)F)n1 [Cmpd 458]	< 10 µM
Cc1nc(N2CC3(CCN(c4cnc5c(C)nn(C6COC6)c5n4)CC3)CC2=O)cc(C(F)(F)F)n1 [Cmpd 459]	10 to 50 µM
Cc1cc(N2CC3(CCN(c4cnc5cnn(CC(F)(F)F)c5n4)C3)C2)nc(C(F)(F)F)n1 [Cmpd 463]	10 to 50 µM
Cc1cc(N2CC3(CCN(c4cnc5c(C)nn(CC(F)F)c5n4)C3)C2)nc(C(F)(F)F)n1 [Cmpd 464]	< 10 µM
Cc1cc(N2CC3(CCN(c4ncc5cnn(CC(F)F)c5n4)C3)C2)nc(C(F)(F)F)n1 [Cmpd 466]	> 100 µM
Cc1cc(N2CC3(CCN(c4ncc5cnn(CC(F)(F)F)c5n4)C3)C2)nc(C(F)(F)F)n1 [Cmpd 467]	< 10 µM
FC(F)(F)c1ncc(N2CC3(CCN(c4ncc5cnn(C6CCCCO6)c5n4)C3)C2)cn1 (centres unmarked) [Cmpd 469]	> 100 µM
FC(F)(F)c1ncc(N2CC3(CCN(c4cnc5cnn(C6CCCCO6)c5n4)C3)C2)cn1 (centres unmarked) [Cmpd 470]	10 to 50 µM
Cc1cc(N2CC3(CCN(c4ncc5c(C)nn(C6COC6)c5n4)C3)C2)nc(C(F)(F)F)n1 [Cmpd 471]	< 10 µM
FC(F)(F)Cn1ncc2ncc(N3CCC4(CCN(c5ccnc(C(F)(F)F)c5)C4)C3)nc21 (centres unmarked) [Cmpd 473]	10 to 50 µM
FC(F)(F)c1cc(N2CCC3(CCN(c4ncc5cnn(C6COC6)c5n4)C3)C2)ccn1 (centres unmarked) [Cmpd 474]	> 100 µM
FC(F)(F)Cn1ncc2ncc(N3CCC4(CC3)CN(c3cc(C(F)(F)F)ccn3)C4)nc21 [Cmpd 477]	< 10 µM
FC(F)(F)c1ccnc(N2CC3(CCN(c4ncc5cnn(C6COC6)c5n4)CC3)C2)c1 [Cmpd 478]	< 10 µM
Cc1nn(C2COC2)c2nc(N3CCC4(CC3)CN(c3cc(C(F)(F)F)ccn3)C4)ncc12 [Cmpd 479]	> 100 µM
FC(F)Cn1ncc2ncc(N3CCC4(CCN(c5ccnc(C(F)(F)F)n5)C4)C3)nc21 (centres unmarked) [Cmpd 484]	< 10 µM
Cc1nn(CC(F)F)c2nc(N3CCC4(CCN(c5ccnc(C(F)(F)F)c5)C4)C3)cnc12 (centres unmarked) [Cmpd 485]	> 100 µM
Cc1nn(CC(F)F)c2nc(N3CCC4(CCN(c5ccnc(C(F)(F)F)c5)C4)C3)ncc12 (centres unmarked) [Cmpd 486]	50 to 100 µM
FC(F)(F)Cn1ncc2cnc(N3CCC4(CCN(c5ccnc(C(F)(F)F)c5)C4)C3)nc21 (centres unmarked) [Cmpd 489]	10 to 50 µM
Cc1nn(CC(F)F)c2nc(N3CCC4(CC3)CN(c3cc(C(F)(F)F)ccn3)C4)cnc12 [Cmpd 490]	< 10 µM

SMILES	EC50
Cc1nn(CC(F)F)c2nc(N3CCC4(CC3)CN(c3cc(C(F)(F)F)ccn3)C4)ncc12 [Cmpd 491]	10 to 50 µM
FC(F)Cn1ncc2cnc(N3CCC4(CC3)CN(c3cc(C(F)(F)F)ccn3)C4)nc21 [Cmpd 492]	10 to 50 µM
O=C1CC2(CCN(c3cnc4cnn(CC(F)F)c4n3)C2)CN1c1ccnc(C(F)(F)F)c1 (centres unmarked) [Cmpd 494]	< 10 µM
Cc1nn(CC(F)F)c2nc(N3CCC4(CC(=O)N(c5ccnc(C(F)(F)F)c5)C4)C3)cnc12 (centres unmarked) [Cmpd 495]	10 to 50 µM
Cc1nn(CC(F)F)c2nc(N3CCC4(CC(=O)N(c5ccnc(C(F)(F)F)c5)C4)C3)ncc12 (centres unmarked) [Cmpd 496]	10 to 50 µM
Cc1nc(N2CC3(CCN(c4cnc5cnn(CC(F)(F)F)c5n4)C3)C2)cc(C(F)(F)F)n1 [Cmpd 499]	< 10 µM
Cc1nc(N2CC3(CCN(c4ncc5cnn(CC(F)(F)F)c5n4)C3)C2)cc(C(F)(F)F)n1 [Cmpd 500]	> 100 µM
Cc1nc(N2CC3(CCN(c4ncc5cnn(CC(F)F)c5n4)C3)C2)cc(C(F)(F)F)n1 [Cmpd 501]	> 100 µM
Cc1nc(N2CC3(CCN(c4ncc5c(C)nn(CC(F)F)c5n4)C3)C2)cc(C(F)(F)F)n1 [Cmpd 502]	< 10 µM
Cc1nc(N2CC3(CCN(c4cnc5c(C)nn(CC(F)F)c5n4)C3)C2)cc(C(F)(F)F)n1 [Cmpd 503]	< 10 µM
Cc1nc(N2CC3(CCN(c4ncc5c(C)nn(C6COC6)c5n4)C3)C2)cc(C(F)(F)F)n1 [Cmpd 504]	10 to 50 µM
Cc1nc(N2CC3(CCN(c4cncc(-c5nncs5)n4)C3)C2)cc(C(F)(F)F)n1 [Cmpd 505]	> 100 µM
O=C1CC2(CCN(c3ccc(C(F)(F)F)nc3)C2)CN1c1cnc2cnn(CC(F)F)c2n1 (centres unmarked) [Cmpd 507]	< 10 µM
O=C1CC2(CCN(c3ccc(C(F)(F)F)cn3)C2)CN1c1cnc2cnn(CC(F)F)c2n1 (centres unmarked) [Cmpd 508]	10 to 50 µM
Cc1nc(N2CCC3(CC(=O)N(c4cnc5cnn(CC(F)F)c5n4)C3)C2)cc(C(F)(F)F)n1 (centres unmarked) [Cmpd 509]	10 to 50 µM
Cc1nc(N2CC3(CCN(c4cnc5cnn(CC(F)F)c5n4)C3)CC2=O)cc(C(F)(F)F)n1 (centres unmarked) [Cmpd 510]	> 100 µM
Cc1nc(N2CCC3(CCN(c4cnc5cnn(CC(F)F)c5n4)CC3)C2=O)cc(C(F)(F)F)n1 [Cmpd 512]	< 10 µM
Cc1nc(N2CC3(CCN(c4cnc5cnn(CC(F)F)c5n4)CC3)CC2=O)cc(C(F)(F)F)n1 [Cmpd 513]	10 to 50 µM
Cc1nn(CC(F)F)c2nc(N3CCC4(CCN(c5ccnc(C(F)(F)F)c5)C4=O)C3)ncc12 (centres unmarked) [Cmpd 515]	< 10 µM
O=C1N(c2ccnc(C(F)(F)F)c2)CCC12CCN(c1cnc3cnn(CC(F)F)c3n1)C2 (centres unmarked) [Cmpd 517]	< 10 µM
O=C1N(c2cnc3cnn(CC(F)F)c3n2)CCC12CCN(c1ccc(C(F)(F)F)nc1)C2 (centres unmarked) [Cmpd 519]	10 to 50 µM
O=C1N(c2cnc3cnn(CC(F)F)c3n2)CCC12CCN(c1ccc(C(F)(F)F)cn1)C2 (centres unmarked) [Cmpd 520]	10 to 50 µM
